From patent EP3046573B1, “AMYLIN ANALOGUES” (Zealand Pharma A/S, priority 2013, dated 2015)
Numbered stars: 1 amine (or outer) side, 2 acyl side, 3 side chain; on linkers, the order of the positions; unused ones are H or OH. Bridge positions count the residues as written; N and C are the ends. Square brackets hold non-standard residues; d marks the D form. Peptide text beside a SMILES is read from it. * marks the point of attachment. C20 diacid = O=C(O)CCCCCCCCCCCCCCCCCCC(=O)*; γGlu = O=C(O)[C@H](CCC(=O)[*:2])N[*:1]; Hyp = O=C(O)[C@@H]1C[C@@H](O)CN1; NMeI = CC[C@H](C)[C@H](NC)C(=O)O; Sar = CNCC(=O)O

Columns and labels:
[1] = target: T1, human calcitonin receptor (hCTR2) (Homo sapiens, UniProt P30988); test: hCTR2 assay: induction of cAMP (AlphaScreen cAMP Assay kit) in COS7 cells expressing hCTR2; assay type: cell-based; conditions: cAMP induction in COS7 cells expressing hCTR2; average of a minimum of 3 determinations; read-out: hCTR2 EC50
T1 construct: expressed in transfected cells
T1 sequence (P30988 25-474): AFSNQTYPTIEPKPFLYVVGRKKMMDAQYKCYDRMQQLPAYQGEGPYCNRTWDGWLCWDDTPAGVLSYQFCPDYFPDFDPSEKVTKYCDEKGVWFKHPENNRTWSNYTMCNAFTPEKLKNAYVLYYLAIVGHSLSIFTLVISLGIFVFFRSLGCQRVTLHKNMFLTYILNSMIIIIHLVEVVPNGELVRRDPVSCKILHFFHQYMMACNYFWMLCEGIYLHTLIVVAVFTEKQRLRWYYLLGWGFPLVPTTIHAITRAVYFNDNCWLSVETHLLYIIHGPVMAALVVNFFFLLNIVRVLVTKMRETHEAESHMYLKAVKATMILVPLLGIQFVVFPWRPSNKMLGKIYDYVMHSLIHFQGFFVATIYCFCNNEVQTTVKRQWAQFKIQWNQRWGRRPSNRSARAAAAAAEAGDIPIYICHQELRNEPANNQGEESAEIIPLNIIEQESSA
Method in brief: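 Stable RAMP-naive COS7 clone expressing hCTR2 was stimulated with increasing peptide concentrations in Tyrode buffer (pH 7.4) with 100 µM IBMX and 0.1% casein for 15 min at 37° C. Cells were lysed and cAMP measured by AlphaScreen. EC50 and efficacy relative to pramlintide came from 4PL curve fits.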

[2] = target: T2, human amylin receptor 3 (hAMYR3) consisting of hCTR2 co-expressed with human Receptor Activity Modifying Protein 3 (hRAMP3) (Homo sapiens, UniProt O60896+P30988); test: hAMYR3 assay: induction of cAMP (AlphaScreen cAMP Assay kit) in COS7 cells expressing hAMYR3; assay type: cell-based; conditions: cAMP induction in COS7 cells expressing hAMYR3; average of a minimum of 3 determinations; read-out: hAMY R3 EC50
T2 construct: expressed in transfected cells
T2 sequence (P30988 25-474): T1 sequence (P30988 25-474)
T2 sequence (O60896 24-148 partner): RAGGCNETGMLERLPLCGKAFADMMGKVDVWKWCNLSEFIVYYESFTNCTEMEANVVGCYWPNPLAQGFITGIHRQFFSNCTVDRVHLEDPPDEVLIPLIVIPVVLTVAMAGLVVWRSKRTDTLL
Method in brief: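 Stable COS7 clone co-expressing hCTR2 and hRAMP3, stimulated 15 min at 37° C with increasing peptide in Tyrode buffer pH 7.4 with 100 µM IBMX and 0.1% casein. cAMP measured by AlphaScreen after lysis; EC50 and % efficacy versus pramlintide from 4PL fit.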

| Structure (SMILES) | EC50 [1] | EC50 [2] |
| --- | --- | --- |
| CC[C@H](C)[C@@H](C(=O)N[C@@H](CC(C)C)C(=O)N[C@@H](CO)C(=O)N[C@@H](CO)C(=O)N[C@H](C(=O)N[C@@H](CCC(=O)O)C(=O)N[C@H](C(=O)NCC(=O)N[C@@H](CO)C(=O)N[C@@H](CCC(=O)O)C(=O)N[C@H](C(=O)N1C[C@H](O)C[C@H]1C(N)=O)[C@@H](C)O)C(C)C)[C@@H](C)O)N(C)C(=O)CN(C)C(=O)[C@H](Cc1ccccc1)NC(=O)[C@H](CO)NC(=O)[C@H](CO)NC(=O)[C@H](CO)NC(=O)[C@H](CO)NC(=O)[C@H](CCCNC(=N)N)NC(=O)[C@H](Cc1c[nH]cn1)NC(=O)[C@H](CC(C)C)NC(=O)[C@H](Cc1ccccc1)NC(=O)[C@H](CCC(=O)O)NC(=O)[C@H](C)NC(=O)[C@H](CC(C)C)NC(=O)[C@H](CCCNC(=N)N)NC(=O)[C@H](CCC(=O)O)NC(=O)[C@@H](NC(=O)[C@H](C)NC(=O)[C@@H]1CSSC[C@H](NC(=O)[C@H](CCCCN)NC(=O)[C@H](CCCCN)NC(=O)CC[C@H](NC(=O)CCCCCCCCCCCCCCCCCCC(=O)O)C(=O)O)C(=O)N[C@@H](CCC(=O)O)C(=O)N[C@@H]([C@@H](C)O)C(=O)N[C@@H](C)C(=O)N[C@@H]([C@@H](C)O)C(=O)N1)[C@@H](C)O [Compound 169, [19CD]-isoGlu-KKC()ETATC()ATERLAEFLHRSSSSF-Gly(Me)-Ile(Me)-LSSTEVGSET-Hyp-NH2] ({C20 diacid-γGlu}-KKCETATCATERLAEFLHRSSSSF[Sar][NMeI]LSSTEVGSET[Hyp]-NH2; disulfide 3-8) | 3500 pM | 640 pM |
| CC[C@H](C)[C@@H](C(=O)N[C@@H](CC(C)C)C(=O)N[C@@H](CO)C(=O)N[C@@H](CO)C(=O)N[C@H](C(=O)N[C@@H](CCC(=O)O)C(=O)N[C@H](C(=O)NCC(=O)N[C@@H](CO)C(=O)N[C@@H](CCC(=O)O)C(=O)N[C@H](C(=O)N1C[C@H](O)C[C@H]1C(N)=O)[C@@H](C)O)C(C)C)[C@@H](C)O)N(C)C(=O)[C@H](C)NC(=O)CN(C)C(=O)[C@H](Cc1ccccc1)NC(=O)[C@H](CO)NC(=O)[C@H](CO)NC(=O)[C@H](CO)NC(=O)[C@H](CO)NC(=O)[C@H](CCCNC(=N)N)NC(=O)[C@H](Cc1c[nH]cn1)NC(=O)[C@H](CC(C)C)NC(=O)[C@H](Cc1ccccc1)NC(=O)[C@H](CCC(=O)O)NC(=O)[C@H](C)NC(=O)[C@H](CC(C)C)NC(=O)[C@H](CCCNC(=N)N)NC(=O)[C@H](CCC(=O)O)NC(=O)[C@@H](NC(=O)[C@H](C)NC(=O)[C@@H]1CSSC[C@H](NC(=O)[C@H](CCCNC(=N)N)NC(=O)CC[C@H](NC(=O)CCCCCCCCCCCCCCCCCCC(=O)O)C(=O)O)C(=O)N[C@@H](CCC(=O)O)C(=O)N[C@@H]([C@@H](C)O)C(=O)N[C@@H](C)C(=O)N[C@@H]([C@@H](C)O)C(=O)N1)[C@@H](C)O [Compound 170, [19CD]-isoGlu-RC()ETATC()ATERLAEFLHRSSSSF-Gly(Me)-A-Ile(Me)-LSSTEVGSET-Hyp-NH2] ({C20 diacid-γGlu}-RCETATCATERLAEFLHRSSSSF[Sar]A[NMeI]LSSTEVGSET[Hyp]-NH2; disulfide 2-7) | 650 pM | 570 pM |
| CC[C@H](C)[C@@H](C(=O)N[C@@H](CC(C)C)C(=O)N[C@@H](CO)C(=O)N[C@@H](CO)C(=O)N[C@H](C(=O)N[C@@H](CCC(=O)O)C(=O)N[C@H](C(=O)NCC(=O)N[C@@H](CO)C(=O)N[C@@H](CCC(=O)O)C(=O)N[C@H](C(=O)N1C[C@H](O)C[C@H]1C(N)=O)[C@@H](C)O)C(C)C)[C@@H](C)O)N(C)C(=O)CN(C)C(=O)[C@H](Cc1ccccc1)NC(=O)[C@H](CO)NC(=O)[C@H](CO)NC(=O)[C@H](CO)NC(=O)[C@H](CO)NC(=O)[C@H](CCCNC(=N)N)NC(=O)[C@H](Cc1c[nH]cn1)NC(=O)[C@H](CC(C)C)NC(=O)[C@H](Cc1ccccc1)NC(=O)[C@H](CCC(=O)O)NC(=O)[C@H](C)NC(=O)[C@H](CC(C)C)NC(=O)[C@H](CCCNC(=N)N)NC(=O)[C@H](CCC(=O)O)NC(=O)[C@@H](NC(=O)[C@H](C)NC(=O)[C@@H]1CSSC[C@H](NC(=O)[C@H](CCCNC(=N)N)NC(=O)CC[C@H](NC(=O)CCCCCCCCCCCCCCCCCCC(=O)O)C(=O)O)C(=O)N[C@@H](CCC(=O)O)C(=O)N[C@@H]([C@@H](C)O)C(=O)N[C@@H](C)C(=O)N[C@@H]([C@@H](C)O)C(=O)N1)[C@@H](C)O [Compound 171, [19CD]-isoGlu-RC()ETATC()ATERLAEFLHRSSSSF-Gly(Me)-Ile(Me)-LSSTEVGSET-Hyp-NH2] ({C20 diacid-γGlu}-RCETATCATERLAEFLHRSSSSF[Sar][NMeI]LSSTEVGSET[Hyp]-NH2; disulfide 2-7) | 840 pM | 540 pM |
| CC[C@H](C)[C@@H](C(=O)N[C@@H](CC(C)C)C(=O)N[C@@H](CO)C(=O)N[C@@H](CO)C(=O)N[C@H](C(=O)N[C@@H](CC(=O)O)C(=O)N[C@H](C(=O)NCC(=O)N[C@@H](CO)C(=O)N[C@@H](CC(=O)O)C(=O)N[C@H](C(=O)N1CCC[C@H]1C(N)=O)[C@@H](C)O)C(C)C)[C@@H](C)O)N(C)C(=O)[C@H](C)NC(=O)CN(C)C(=O)[C@H](Cc1ccccc1)NC(=O)[C@H](CO)NC(=O)[C@H](CO)NC(=O)[C@H](CO)NC(=O)[C@H](CO)NC(=O)[C@H](CCCNC(=N)N)NC(=O)[C@H](Cc1c[nH]cn1)NC(=O)[C@H](CC(C)C)NC(=O)[C@H](Cc1ccccc1)NC(=O)[C@H](CCC(=O)O)NC(=O)[C@H](C)NC(=O)[C@H](CC(C)C)NC(=O)[C@H](CCCNC(=N)N)NC(=O)[C@H](CCC(=O)O)NC(=O)[C@@H](NC(=O)[C@H](C)NC(=O)[C@@H]1CSSC[C@H](NC(=O)[C@H](CCCNC(=N)N)NC(=O)CC[C@H](NC(=O)CCCCCCCCCCCCCCCCCCC(=O)O)C(=O)O)C(=O)N2CCC[C@H]2C(=O)N[C@@H]([C@@H](C)O)C(=O)N[C@@H](C)C(=O)N[C@@H]([C@@H](C)O)C(=O)N1)[C@@H](C)O [Compound 173, [19CD]-isoGlu-RC()PTATC()ATERLAEFLHRSSSSF-Gly(Me)-A-Ile(Me)-LSSTDVGSDTP-NH2] ({C20 diacid-γGlu}-RCPTATCATERLAEFLHRSSSSF[Sar]A[NMeI]LSSTDVGSDTP-NH2; disulfide 2-7) | 62 pM | 140 pM |
